Experimental data published in paper PMC4448986 (Pharmacology Research & Perspectives, 2015).
Converted amounts (≈) assume the structure as drawn.

How the values were obtained:
[1] = Water solubility by UV-vis; details: deionized water, 20 °C, thermodynamic from solid
PK analysis in rats = type: in vivo; details: male, Sprague-Dawley, rat, plasma, po, 100 mg/kg

solubility at 24 h [1]: 0.28 ± 0.02 µM (≈ 0.0976 µg/mL)
AUC (PK analysis in rats): 51500 ng·h/mL
AUC(0-inf) (PK analysis in rats): 54300 ng·h/mL
AUC(0-t) (PK analysis in rats): 51500 ng·h/mL
Tmax (PK analysis in rats): 2 h
Structure (SMILES): C=C(c1ccc(C(=O)O)cc1)c1cc2c(cc1C)C(C)(C)CCC2(C)C [Compound 1, bexarotene]
